From patent US11166460B2, “α-amino acrylate microbicide, and preparation method therefor and uses thereof” (priority 2017, dated 2021)
≈ marks a conversion by molar mass, not a printed value. Where two headings read alike, the source gives them in different places.

How the values were obtained:
[1] = system: tobacco mosaic virus (TMV); experiment: Anti-TMV curative activity (treatment mode), live friction inoculation on tobacco seedlings; format: in vivo; conditions: Tobacco mosaic virus, read-out: Anti-TMV activity, Curative effect (inhibition), 100 μg/mL, tobacco seedlings, checked on seventh day
[2] = system: tobacco mosaic virus (TMV); experiment: Anti-TMV inactivation activity (inactivation mode), compound mixed with TMV before inoculation of tobacco leaves; format: in vivo; conditions: Tobacco mosaic virus, read-out: Anti-TMV activity, Inactivation effect (inhibition)
[3] = system: tobacco mosaic virus (TMV); experiment: Anti-TMV protective activity (protection mode), live friction inoculation on tobacco seedlings; format: in vivo; conditions: Tobacco mosaic virus, read-out: Anti-TMV activity, Protection effect (inhibition)
[4] = system: tobacco mosaic virus (TMV); experiment: Anti-TMV inducing activity (induction mode), tobacco seedlings; format: in vivo; conditions: Tobacco mosaic virus, read-out: Anti-TMV activity, Induction effect (inhibition), 100 μg/mL, tobacco seedlings
[5] = system: Alternaria solani; experiment: Fungicidal activity, fungi growth rate method, AS; format: cell-based; conditions: Alternaria solani, 50 μg/mL
[6] = system: Botrytis cinerea; experiment: Fungicidal activity, fungi growth rate method, BC; format: cell-based; conditions: Botrytis cinerea, 50 μg/mL
[7] = system: Cercospora arachidicola; experiment: Fungicidal activity, fungi growth rate method, CA; format: cell-based; conditions: Mycosphaerella arachidis, 50 μg/mL
[8] = system: wheat Gibberella zeae; experiment: microbe, parasite or virus in culture; format: cell-based; conditions: Fusarium graminearum
[9] = system: Phytophthora infestans (Mont) de Bary; experiment: microbe, parasite or virus in culture; format: cell-based; conditions: Phytophthora infestans
[10] = system: Physalospora piricola; experiment: Fungicidal activity, fungi growth rate method, PP; format: cell-based; conditions: 50 μg/mL
[11] = system: Pellicularia sasakii; experiment: Fungicidal activity, fungi growth rate method, PS; format: cell-based; conditions: 50 μg/mL
[12] = system: Rhizoctonia cerealis; experiment: Fungicidal activity, fungi growth rate method, RC; format: cell-based; conditions: Ceratobasidium cereale, 50 μg/mL
[13] = system: Sclerotinia sclerotiorum; experiment: microbe, parasite or virus in culture; format: cell-based; conditions: Sclerotinia sclerotiorum; for inhibition at 50 µg/mL: 50 μg/mL; for EC90: read-out: EC90 against S. sclerotiorum in vitro
[14] = read-out: Fungicidal activity (inhibition) against AS: Alternaria solani
[15] = read-out: Fungicidal activity, inhibition, AS
[16] = read-out: Fungicidal activity (inhibition) against BC: Botrytis cinerea
[17] = read-out: Fungicidal activity, inhibition, BC
[18] = read-out: Fungicidal activity (inhibition) against CA: Cercospora arachidicola
[19] = read-out: Fungicidal activity, inhibition, CA
[20] = read-out: Fungicidal activity (inhibition) against GZ: wheat Gibberella zeae
[21] = read-out: Fungicidal activity, inhibition, GZ
[22] = read-out: Fungicidal activity (inhibition) against PI: Phytophthora infestans (Mont) de Bary
[23] = read-out: Fungicidal activity, inhibition, PI
[24] = read-out: Fungicidal activity (inhibition) against PP: Physalospora piricola
[25] = read-out: Fungicidal activity, inhibition, PP
[26] = read-out: Fungicidal activity (inhibition) against PS: Pellicularia sasakii
[27] = read-out: Fungicidal activity, inhibition, PS
[28] = read-out: Fungicidal activity (inhibition) against RC: Rhizoctonia cerealis
[29] = read-out: Fungicidal activity, inhibition, RC
[30] = read-out: Fungicidal activity (inhibition) against SS: Sclerotinia sclerotiorum
[31] = read-out: Fungicidal activity, inhibition, SS

| SMILES | inhibition at 100 µg/mL [1] | inhibition at 100 µg/mL [2] | inhibition at 100 µg/mL [3] | inhibition at 100 µg/mL [4] | inhibition at 50 µg/mL [5, 14] | inhibition at 50 µg/mL [5, 15] | inhibition at 50 µg/mL [6, 16] | inhibition at 50 µg/mL [6, 17] | inhibition at 50 µg/mL [7, 18] | inhibition at 50 µg/mL [7, 19] | inhibition at 50 µg/mL [8, 21] | inhibition at 50 µg/mL [9, 22] | inhibition at 50 µg/mL [9, 23] | inhibition at 50 µg/mL [10, 24] | inhibition at 50 µg/mL [10, 25] | inhibition at 50 µg/mL [11, 27] | inhibition at 50 µg/mL [12, 28] | inhibition at 50 µg/mL [12, 29] | inhibition at 50 µg/mL [13, 31] | melting point | further results |
| --- | --- | --- | --- | --- | --- | --- | --- | --- | --- | --- | --- | --- | --- | --- | --- | --- | --- | --- | --- | --- | --- |
| O=C(NC1CC1)/C(=C/c1ccccc1)NC(=O)c1ccccc1 [Compound 39, (Z)-N-[1-[(cyclopropylamino)carbonyl]-2-phenylethenyl]benzamide] | 18% | 0% | 10% | 34% | < 30% | 17% | ≤ 20% | 9% | < 25% | 13% | 13% | < 25% | 11% | < 20% | 3% | 6% | < 20% | 3% | 67% | 185 to 186 °C | inhibition at 50 µg/mL [8, 20]: < 45%; inhibition at 50 µg/mL [11, 26]: < 30%; inhibition at 50 µg/mL [13, 30]: 67% |
| O=C(NC1CCCCC1)/C(=C/c1ccccc1)NC(=O)c1ccccc1 [Compound 40, (Z)-N-[1-[(cyclohexylamino)carbonyl]-2-phenylethenyl]benzamide] | 0% | 0% | 0% | 45% | < 30% | 13% | ≤ 20% | 10% | < 25% | 10% | 11% | < 25% | 11% | < 20% | 0% | 6% | < 20% | 10% | 56% | 204 to 206 °C | inhibition at 50 µg/mL [8, 20]: < 45%; inhibition at 50 µg/mL [11, 26]: < 30%; inhibition at 50 µg/mL [13, 30]: 56% |
| CNC(=O)/C(=C/c1csc(C2CCN(C(=O)OC(C)(C)C)CC2)n1)NC(=O)c1ccccc1 [Compound 41, (Z)-N-[1-[(methylamino)carbonyl]-2-[4-[2-[4-(1-Boc-piperidine)]thiazol]]ethenyl]benzamide] | 0% | 0% | 30% | 2% |  | 54% | 52% | 52% |  | 35% | 34% |  | 39% |  | 37% | 33% |  | 33% | 96% | 107 to 109 °C | EC90 [13]: 375 µg/mL (≈ 796 µM) |
| CONC(=O)/C(=C/c1csc(C2CCN(C(=O)OC(C)(C)C)CC2)n1)NC(=O)c1ccccc1 [Compound 42, (Z)-N-[1-[(methoxylamino)carbonyl]-2-[4-[2-[4-(1-Boc-piperidine)]thiazol]]ethenyl]benzamide] | 0% | 0% | 41% | 20% | 63% | 63% | 53% | 53% | 44% | 44% | 42% | 44% | 44% | 44% | 44% | 43% | 45% | 45% | 93% | 111 to 113 °C | inhibition at 50 µg/mL [11, 26]: 43%; EC90 [13]: 155 µg/mL (≈ 318 µM) |
| CC(C)(C)OC(=O)N1CCC(c2nc(/C=C(\NC(=O)c3ccccc3)C(=O)NCC(F)F)cs2)CC1 [Compound 43, (Z)-N-[1-[(2,2-difluoroethylamino)carbonyl]-2-[4-[2-[4-(1-Boc-piperidine)]thiazol]]ethenyl]benzamide] | 30% | 27% | 2% | 31% |  | 43% |  | 40% |  | 32% | 36% | 38% | 38% |  | 40% | 39% | 38% | 38% | 96% | 164 to 165 °C | EC90 [13]: 154 µg/mL (≈ 295 µM) |
